# Experimental data from US7863325B2, “Crystalline genistein sodium salt dihydrate” (Axcentua Pharmaceuticals AB, priority 2008, dated 2011).
# Read-outs that look alike come from different tables or passages of the source.
# Legend:
# [1] = Aqueous solubility (slurry shaken ca. 24 hours, filtered, HPLC); format: physicochemical
# Method: Aqueous Solubility: Aqueous solubility was measured using the following protocol. Slurries of genistein and of crystalline genistein sodium dihydrate salt were made up in aqueous media in which pH was set at 4.5, 6.7, and 7.5, each slurry was shaken at ambient temperature for ca. 24 hours and then filtered using a 0.2 μm filter into a clean vial. The saturated solutions were then diluted and analyzed for API (genistein) content using N-Ac-DL-Methionine on a Chirobiotic T HPLC column and UV detector set at λmax=270 nm. The mobile phase was acetonitrile/water run in isocratic mode over a 30 minute period. The results are presented in Table 3, (BDL=below detection limits).
# [2] = Solubility in different solvents (aliquot addition until dissolution); format: physicochemical
# Method: Solubility in different solvents: Solubility in different organic solvents was measured using the following protocol. Approximately 25 mg portions of genistein and crystalline genistein sodium dihydrate salt were placed in 48 different vials, separately. 5 volume aliquots of each solvent were added exclusively to a vial. Between each addition, the mixture was checked for dissolution and if no dissolution was apparent, the procedure was continued until dissolution was observed or when 50 volumes had been added.
# [3] = rat, mean ± SD, n = 3
# Method: Preparation of Dosing Solutions for In-Vivo Study: Genistein and Crystalline genistein sodium salt dihydrate were stored at room temperature under desiccant and protected from light. The dosing solutions were prepared fresh from powders on the day of dosing. The dosing solution for intravenous administration (IV) was prepared at 1 mg/mL (free acid) in 50:50 DMSO:saline. The dosing solutions for intraduodenal administration (ID) were prepared at 2 mg/mL (genistein free acid) in a 0.2% sodium carboxymethyl cellulose (Na CMC) solution in water.
# Animal Dosing: The pharmacokinetics of genistein was evaluated in fasted male Sprague-Dawley rats. Each animal was fitted with a jugular vein cannula (JVC) for blood sampling. Animals intended for intravenous dosing were fitted with an additional JVC for dose administration. Animals intended for intraduodenal dosing were fitted with an intraduodenal cannula (IDC) for dose administration. Surgically modified animals were housed one per cage. All animals were supplied with a commercial rodent diet (LabDiet, Certified Rodent Diet #5002) ad libitum prior to study initiation. […] Water was supplied ad libitum.
# Intraduodenal dosing solutions were administered as a single bolus dose at time zero on the day of dosing. Intravenous doses were administered as a slow IV injection over approximately 1 minute. Blood sampling times began at the end of the infusion. Blood samples were collected.
# Each blood sample was collected from the rats via a jugular vein cannula and placed into chilled polypropylene tubes containing sodium heparin as an anticoagulant. Samples were centrifuged at a temperature of 4° C. and at a speed of 13,000 rpm for 5 minutes. Samples were maintained chilled throughout processing. Each plasma sample was split into two aliquots. The first aliquot contained 50 μL of plasma. All remaining plasma volume was used for the second aliquot. Samples were then placed on dry ice, and stored in a freezer set to maintain −60° C. to −80° C. The total concentration of genistein in plasma samples were analyzed by LC-MS/MS after an overnight incubation with glucuronidase/arylsulfatase enzyme mixture. Pharmacokinetic parameters were calculated using the WinNonlin software.
# Analysis of Plasma Samples: An LC-MS/MS analytical method for the determination of genistein in rat plasma was developed. Prior to sample analysis, a standard curve was analyzed to determine the specificity, range, and linearity of the method. Total genistein in plasma samples was determined by pre-treating all samples with β-glucuronidase/arylsulfatase enzymes and incubating prior to analysis. Incubation with the enzyme mix deconjugated any glucuronide or sulfate metabolites of genistein back to the parent form.
# Acceptance Criteria for LC-MS/MS Analysis: One standard curve was dispersed throughout each analytical run. At least ⅝ of the standards must be accurate to within ±20%, except at the LLOQ where ±25% is acceptable, in order for the run to pass.
# Pharmacokinetic Analysis: Individual plasma concentrations versus time data for genistein were subjected to non-compartmental analysis using the pharmacokinetic program WinNonlin v. […] Plasma concentrations below the limit of quantitation (10 ng/mL) were assigned a value of zero for PK analysis only.
# [4] = SuperSol 1000 kinetic and equilibrium solubility assay
# [5] = cited from earlier work
smiles,measurement,setting,value
"O=c1c(-c2ccc(O)cc2)coc2cc(O)cc(O)c12 [Genistein, 4′,5,7-trihydroxyisoflavone-5,7-dihydroxy-3-(4-hydroxyphenyl)-4H-1-benzopyran-4-one]",Aqueous solubility,"[1]; Water/slurry pH 4.5, ambient temperature",BDL
same,Aqueous solubility,"[1]; Water/slurry pH 6.7, ambient temperature",BDL
same,Aqueous solubility,"[1]; Water/slurry pH 7.5, ambient temperature",BDL
same,solubility,"[2]; aqueous with cosolvent or surfactant or cyclodextrin, thermodynamic from solid, Acetone/Water (50:50)",< 10.1 mg/mL
same,solubility,"[2]; organic solvent or mixture, thermodynamic from solid, 1,4-dioxane",< 10.3 mg/mL
same,solubility,"[2]; organic solvent or mixture, thermodynamic from solid, 1-Butanol (BuOH)",< 10.5 mg/mL
same,solubility,"[2]; organic solvent or mixture, thermodynamic from solid, 2-Propanol (IPA)",< 10.5 mg/mL
same,solubility,"[2]; organic solvent or mixture, thermodynamic from solid, Acetone",~17 mg/mL
same,solubility,"[2]; organic solvent or mixture, thermodynamic from solid, Acetone/IPA (50:50)",20.1 mg/mL
same,solubility,"[2]; organic solvent or mixture, thermodynamic from solid, Acetonitrile (MeCN)",< 10.1 mg/mL
same,solubility,"[2]; organic solvent or mixture, thermodynamic from solid, Cyclohexane",< 10.7 mg/mL
same,solubility,"[2]; organic solvent or mixture, thermodynamic from solid, Dichloromethane (DCM)",< 10.3 mg/mL
same,solubility,"[2]; organic solvent or mixture, thermodynamic from solid, Diisopropylether (DIPE)",< 10.6 mg/mL
same,solubility,"[2]; organic solvent or mixture, thermodynamic from solid, Dimethyl sulfoxide (DMSO)",~100 mg/mL
same,solubility,"[2]; organic solvent or mixture, thermodynamic from solid, Ethanol (EtOH)",< 10.8 mg/mL
same,solubility,"[2]; organic solvent or mixture, thermodynamic from solid, Heptane",< 10.5 mg/mL
same,solubility,"[2]; organic solvent or mixture, thermodynamic from solid, Methanol (MeOH)",< 10.6 mg/mL
same,solubility,"[2]; organic solvent or mixture, thermodynamic from solid, Methyl acetate (MeOAc)",< 10.3 mg/mL
same,solubility,"[2]; organic solvent or mixture, thermodynamic from solid, Methyl isobutyl ketone (MIBK)",< 10.1 mg/mL
same,solubility,"[2]; organic solvent or mixture, thermodynamic from solid, Methylethyl ketone (MEK)",< 10.8 mg/mL
same,solubility,"[2]; organic solvent or mixture, thermodynamic from solid, N-Methyl-2-pyrrolidinone (NMP)",~68 mg/mL
same,solubility,"[2]; organic solvent or mixture, thermodynamic from solid, N-N-dimethylformamide (DMF)",~100 mg/mL
same,solubility,"[2]; organic solvent or mixture, thermodynamic from solid, Octanol",< 10.5 mg/mL
same,solubility,"[2]; organic solvent or mixture, thermodynamic from solid, Tetrahydrofuran (THF)",26.3 mg/mL
same,solubility,"[2]; organic solvent or mixture, thermodynamic from solid, Toluene",< 10.1 mg/mL
same,solubility,"[2]; organic solvent or mixture, thermodynamic from solid, Toluene/Dioxane (50:50)",< 10.1 mg/mL
same,solubility,"[2]; organic solvent or mixture, thermodynamic from solid, tert-Butylmethyl ether (TBME)",< 10.5 mg/mL
same,AUClast,"[3]; intraduodenal, 20 mg/kg",414 ± 111 kg·ng·h/mL/mg
same,AUClast,"[3]; intravenous, 1 mg/kg",2533 ± 638 kg·ng·h/mL/mg
same,AUC∞,"[3]; intravenous, 1 mg/kg",2584 ± 639 kg·ng·h/mL/mg
same,C[Eq] (late kinetic solubility),[4]; EtOH 100%,13.79 mg×1^−1
same,C[MSS] (early kinetic solubility),[4]; EtOH 100%,5.81 mg×1^−1
same,ISI (Intrinsic Solubility Index),[4]; EtOH 100%,2.11
same,"ISI / late solubility profile, rating in words",[4]; EtOH 100%,good
same,KSR (Kinetic Solubility ratio),[4]; EtOH 100%,0.42
same,"KSR, rating in words",[4]; EtOH 100%,acceptable
same,MSS (Maximum Solubility Speed),[4]; EtOH 100%,23.81 mg×1^−1×min^−1
same,"MSS, rating in words",[4]; EtOH 100%,good
same,"ΔC [C, − CMSS]",[4]; EtOH 100%,7.98 mg×1^−1
same,C[Eq] (late kinetic solubility),[4]; EtOH/dH2O 50/50 (vol/vol),12.87 mg×1^−1
same,C[MSS] (early kinetic solubility),[4]; EtOH/dH2O 50/50 (vol/vol),7.43 mg×1^−1
same,ISI (Intrinsic Solubility Index),[4]; EtOH/dH2O 50/50 (vol/vol),1.55
same,"ISI / late solubility profile, rating in words",[4]; EtOH/dH2O 50/50 (vol/vol),good
same,KSR (Kinetic Solubility ratio),[4]; EtOH/dH2O 50/50 (vol/vol),0.58
same,"KSR, rating in words",[4]; EtOH/dH2O 50/50 (vol/vol),acceptable
same,MSS (Maximum Solubility Speed),[4]; EtOH/dH2O 50/50 (vol/vol),12.18 mg×1^−1×min^−1
same,"MSS, rating in words",[4]; EtOH/dH2O 50/50 (vol/vol),good
same,ΔC [CEq − CMSS],[4]; EtOH/dH2O 50/50 (vol/vol),5.44 mg×1^−1
same,C[Eq] (late kinetic solubility),[4]; EtOH/dH2O 75/25 (vol/vol),14.03 mg×1^−1
same,C[MSS] (early kinetic solubility),[4]; EtOH/dH2O 75/25 (vol/vol),8.52 mg×1^−1
same,ISI (Intrinsic Solubility Index),[4]; EtOH/dH2O 75/25 (vol/vol),1.49
same,"ISI / late solubility profile, rating in words",[4]; EtOH/dH2O 75/25 (vol/vol),good
same,KSR (Kinetic Solubility ratio),[4]; EtOH/dH2O 75/25 (vol/vol),0.61
same,"KSR, rating in words",[4]; EtOH/dH2O 75/25 (vol/vol),good
same,MSS (Maximum Solubility Speed),[4]; EtOH/dH2O 75/25 (vol/vol),19.67 mg×1^−1×min^−1
same,"MSS, rating in words",[4]; EtOH/dH2O 75/25 (vol/vol),good
same,ΔC [CEq − CMSS],[4]; EtOH/dH2O 75/25 (vol/vol),5.51 mg×1^−1
same,Solubility in water (in words),[5]; background statement,practically insoluble
same,Aqueous solubility (reported),[5]; reported range,0.01 to 0.04 µM
